Results: patent US20250195496A1, “AVPR1A BLOCKADE TO REDUCE SOCIAL ISOLATION-INDUCED ANXIETY IN FEMALES” (THE TRUSTEES OF COLUMBIA UNIVERSITY IN THE CITY OF NEW YORK, priority 2022, published 2025)
Entries after “also recorded” stand apart in the source; their conditions may differ. Bridge positions count the residues as written; N and C are the ends. Ends that are not written are not given here.

Columns and labels:
central AVPR1A circuits = test: Food intake following amygdala injection of AVP; type: in vivo, mouse
WT and Avpr1a-/- females = test: Marble burying after bilateral intra-CeA AVP injection; type: in vivo, mouse; settings: 1 ng AVP bilateral
Procedure: For cannulations, ophthalmic ointment and analgesics were administered (buprenorphine, 0.1 mg/kg or buprenorphine Ethiqa XR, 3.25 mg/kg, and carprofen, 5 mg/kg, subcutaneous). Two cannulas (Model C317GS, Plastics One) were placed by drilling holes at the following coordinates: +/−2.4 mm lateral, −1.4 mm anteroposterior and −4.6 mm ventral from Bregma. Implants were secured by dental cement and protected with a cap (Model C317DCS, Plastics One).
(§1) Marble burying: Standard cages were filled with fresh bedding to a depth of 2.5 in and 15 marbles were evenly spaced across the bedding. Animals were placed in the cage for 30 min and allowed to ambulate freely. At the end of the assay, the number of marbles buried was estimated visually. A marble was considered buried if at least ¾ of its surface was covered by the bedding.
Intra-amygdala AVP injections: Prior to marble burying, adult WT and Avpr1a^−/− females were bilaterally injected with 1 ng of AVP or 0.9% saline via in-dwelling cannulas using a Hamilton syringe (Hamilton 7635-01) connected to an injector (Model C317IS, Plastics One).

male rats = settings: males; AVP delivered into the CeA (Hernandez et al., 2016; Hernandez-Perez et al., 2018); cited from earlier work
AVPR1A^CeA neurons = test: Chemogenetic activation of AVPR1A^CeA neurons by CNO (cFos smFISH); type: in vivo, mouse; settings: Avpr1a-Cre mice injected with the DREADD-Gq virus; single injection 1.5 mg/kg, i.p.
Description: (A) Heat map for the expression of the 300 top genes at […], 7, 13 and 22 weeks of age (n=3). […] (D) Vgat and AVPR1A expression detected with smFISH in a coronal section of the CeA at bregma-1.34 mm. (E) Quantification of AVPR1A^CeA neurons. (F) AVPR1A-Cre::tdTomato reporter expression in a coronal section of the CeA at bregma-1.34 mm. (G-L) Chemogenetic activation of AVPR1A^CeA neurons. (G) Schematic of bilateral injections of AAV-DIO-DREADD-Gq-mCherry (closed circles) vs. AAV-DIO-mCherry controls (open circles) in the CeA of Avpr1a-Cre adult mice. (H) Expression of the viral mCherry reporter in the CeA. High-magnification image showing Avpr1a and cFos expression detected with smFISH 1 h after CNO injections in mice injected with control (lower panel) and DREADD-Gq-mCherry (upper panel) AAVs. (I-L) Effects of CNO injections on marble burying (I), time spent in the open arms of the EPM (J), time spent in the center of the open field (K), and distance traveled in the open field (L) in mice injected with control and DREADD-Gq AAVs (n=6-9). Data are presented as means+/−SEM in E.
We utilized a chemogenetic approach to overcome this technical issue that prevented direct comparisons of males and females. […]

WT mice = test: Marble burying assay after i.p. antagonist injection; type: in vivo, mouse; settings: 2 mg/kg
Procedure: Chronic social Isolation: Mice were singly housed at 5 weeks of age for 7 weeks in standard cages. Control groups included mice isolated at 8 weeks of age for 2 weeks, or at 8 weeks of age for 7 weeks. An additional control group included mice socially isolated at 8 weeks of age for 7 weeks and regrouped at 15 weeks for 3 weeks.
All behavioral assays were performed after lights out (7 pm).
as §1, with “Animals were placed in the cage for 30 min and allowed to ambulate freely.” left out
Peripheral antagonist injections: Injections of SRX246 (AVPR1A antagonist, 2 mg/kg, i.p.), SR49059 (AVPR1A antagonist, 2 mg/kg, i.p.), SSR149415 (AVPR1B antagonist, 2 mg/kg, i.p.), d(CH2)5Tyr(Me)-[Orn8]-vasotocin (Oxytocin receptor antagonist, 2 mg/kg, i.p.), or 1% DMSO (Sigma Aldrich, i.p.) were performed in WT adults.

With “AVP: AVP (vasopressin), the AVPR1A ligand, injected into the amygdala/CeA (CYFQNCPRG-NH2; disulfide 1-6; UniProt P01185 20-28, looked up)” the “effect on food intake” value (central AVPR1A circuits; AVP 0.3 ng injected in the amygdala) was “anorexigenic effects”, the “marble burying / anxiety behavior” value (WT and Avpr1a-/- females; global knockout Avpr1a-/- females) was “had no effect” and the “marble burying / anxiety behavior” value (WT and Avpr1a-/- females; group housed WT females) was “trigger anxiety behavior in WT females; also recorded: increased marble burying”. The anxiety-related behaviors (male rats) was “can induce anxiety-like behaviors in males; also recorded: increase anxiety-related behaviors in males; also recorded: elicited anxiety-related behaviors”.
In the case of `C[N+]1([O-])CCN(C2=Nc3cc(Cl)ccc3Nc3ccccc32)CC1` [CNO, clozapine-N-oxide], the “activation of AVPR1A^CeA neurons” value (AVPR1A^CeA neurons) was “acutely activated AVPR1A^CeA neurons”.
With `COc1ccc(S(=O)(=O)N2C(=O)[C@@](c3ccccc3OC)(N3C[C@H](O)C[C@H]3C(=O)N(C)C)c3cc(Cl)ccc32)c(OC)c1` [AVPR1B antagonist] the “marble burying (15 min)” value (WT mice; female mice exposed to CSIS) was “did not affect behavior in females or males” and the “marble burying (15 min)” value (WT mice; male mice exposed to CSIS) was “did not affect behavior in females or males”.
In the case of “d(CH2)5Tyr(Me)-[Orn8]-vasotocin [OXR antagonist]”, the “marble burying (15 min)” value (WT mice; female mice exposed to CSIS) was “did not affect behavior in females or males” and the “marble burying (15 min)” value (WT mice; male mice exposed to CSIS) was “did not affect behavior in females or males”.
In the case of `COc1ccc(S(=O)(=O)N2c3ccc(Cl)cc3[C@](O)(c3ccccc3Cl)[C@@H]2C(=O)N2CCC[C@H]2C(N)=O)cc1OC` [SR49059], the marble burying (WT mice; female WT mice exposed to >7 weeks CSIS starting at 5 or 8 weeks of age) was “had no effect”, the marble burying (WT mice; male WT mice exposed to >7 weeks CSIS starting at 5 or 8 weeks of age) was “had no effect” and the “food intake: blockade of the anorexigenic effects of AVP” value (central AVPR1A circuits; AVP (0.3 ng) injected in the amygdala, peripheral injection of antagonist (Manning compound; SR49059 2 mg/kg)) was “does not restore food intake”.
